From US8690865B2, “Methods and devices for thermal treatment” (Georgia Tech Research Corporation, priority 2004, dated 2014)
Read-outs that look alike come from different tables or passages of the source.

How the values were obtained:
[1] = in vivo transport into and across skin treated with thermal treatment device; parameters: species or system Sprague-Dawley hairless rat; settings: hairless rat skin treated with thermal treatment device; brief exposure to dye or over an hour to calcein solution
Procedure: (§1) The in vivo skin model is a Sprague-Dawley hairless rat, a commonly used model for human skin permeability due to the similarity of hairless rat and human skin. For initial studies, rats ARE anesthetized by intraperitoneal injection of urethane (1000 mg/kg) and treated with a thermal treatment device of the present invention. The skin is exposed either briefly to a blue tissue marking dye to visualize the size and location of pores, or exposed for over an hour to a calcein solution to image the transdermal transport process. After sacrificing the animal, skin specimens are excised and prepared for histological examination by cryostat sectioning.

[2] = skin permeability measurement in Franz diffusion cell after microheater microablation
Procedure: Microheater components are tested for use in ablation of stratum corneum and increasing barrier permeability and increased drug transport by assessing transport across cadaver skin by three different molecules. Calcein is a low molecular weight (623 Da) fluorescent molecule used to measure skin permeability by spectrofluorimetric assay and image transport pathways in skin by confocal microscopy. […] Insulin is a polypeptide (6 kDa) that will be used for comparison with in vivo studies involving insulin delivery to diabetic rats. To perform skin permeability measurements, cadaver epidermis is placed in a Franz diffusion cell at 37° C. and an array of microheaters is then positioned on the stratum corneum side and thermally activated to cause microablation. […] Every hour, or more frequently, 1 ml of receptor solution is sampled, and replaced with fresh saline, and fluorescence intensity is measured using calibrated spectrofluorometry and analyzed to determine rates of transdermal delivery.

[3] = insulin delivery through micropores in streptozotocin-diabetic rats; assay type: in vivo, rat; settings: treated skin area exposed to Humulin-R insulin solution
Procedure: as §1
For insulin delivery studies, rats are made diabetic by intravenous injection with 100 mg/kg streptozotocin, which produces diabetes the next day due to destruction of pancreatic islet cells. Under urethane anesthesia, skin is treated with a thermal treatment device of the present invention and the treated skin area is exposed to an Humulin-R insulin solution. Blood samples are collected by tail veil laceration over time to measure glucose concentration using a FreeStyle glucose monitor to determine pharmacodynamic response and to measure insulin concentration by radioimmunoassay to determine pharmacokinetic response, after which the animal is sacrificed.

| Compound | transport into micropores and across the epidermis (histological tissue sections) [1] | transport across cadaver skin (measured in receptor solution) [2] | blood glucose (pharmacodynamic response) [3] | insulin concentration in blood (radioimmunoassay, pharmacokinetic response) [3] | transport across cadaver skin (measured in receptor solution) ([2]; cadaver epidermis, Franz diffusion cell at 37° C., after microablation by microheater array, added individually to donor compartment) |
| --- | --- | --- | --- | --- | --- |
| O=C(O)CN(CC(=O)O)Cc1cc2c(cc1O)Oc1cc(O)c(CN(CC(=O)O)CC(=O)O)cc1C21OC(=O)c2ccccc21 [Calcein] | show transport of the molecules into the micropores and with time, transport across the epidermis | later measured in the receptor solution | – | – | – |
| Insulin | – | – | response to glucose control | insulin in the blood | later measured in the receptor solution |
